This is an account of results in PMC9366271 (Journal of medicinal chemistry, 2018).

Assay [1] concerns the target D2R (Homo sapiens, UniProt P14416). Kind of assay: Dynamic mass redistribution. The assay is classed as cell-based. As to conditions: 500 nM bivalent compounds or 1 μM spiperone for 30 min, then 100 nM sumanirole.
The target of assay [2] is D2R (Ovis aries, UniProt A0ACI6R699). It is filed as binding, sheep.

Entries after “also recorded” stand apart in the source; their conditions may differ.

D2R (Homo sapiens, UniProt P14416), sequence (P14416 whole entry): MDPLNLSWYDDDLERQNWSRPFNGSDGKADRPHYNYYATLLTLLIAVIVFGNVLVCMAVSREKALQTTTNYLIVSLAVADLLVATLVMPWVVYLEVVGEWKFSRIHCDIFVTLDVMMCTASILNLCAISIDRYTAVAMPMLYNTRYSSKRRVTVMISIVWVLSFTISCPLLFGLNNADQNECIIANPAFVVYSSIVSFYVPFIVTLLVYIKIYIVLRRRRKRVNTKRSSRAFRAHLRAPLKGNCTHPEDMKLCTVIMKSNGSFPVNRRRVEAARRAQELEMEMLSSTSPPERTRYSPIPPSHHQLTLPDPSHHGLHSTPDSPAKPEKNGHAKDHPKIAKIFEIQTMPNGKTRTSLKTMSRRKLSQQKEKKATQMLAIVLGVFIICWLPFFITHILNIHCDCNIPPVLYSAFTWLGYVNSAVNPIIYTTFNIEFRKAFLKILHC

For `COC(=O)CN(CC(=O)NCCCOCCOCCOCCCNC(=O)CCC(=O)Nc1ccc(CCN2CN(c3ccccc3)C3(CCN(CCCC(=O)c4ccc(F)cc4)CC3)C2=O)cc1)CC(=O)NCCCOCCOCCOCCCNC(=O)CCC(=O)Nc1ccc(CCN2CN(c3ccccc3)C3(CCN(CCCC(=O)c4ccc(F)cc4)CC3)C2=O)cc1` [Compound 12, Methyl 24-((4-(2-(8-(4-(4-fluorophenyl)-4-oxobutyl)-4-oxo-1-phenyl-1,3,8-triazaspiro[4.5]decan-3-yl)ethyl)phenyl)amino)-3-(21-((4-(2-(8-(4-(4-fluorophenyl)-4-oxobutyl)-4-oxo-1-phenyl-1,3,8-triazaspiro[4.5]decan-3-yl)ethyl)phenyl)amino)-2,18,21-trioxo-7,10,13-trioxa-3,17-diazahenicosyl)-5,21,24-trioxo-10,13,16-trioxa-3,6,20-triazatetracosanoate], at D2R [1], the “magnitude of the signaling by sumanirole in presence of ligand (DMR)” value (shortened to “magnitude of the signaling by sumanirole”) was “significantly decreased”.

On to `COC(=O)CN(CC(=O)NCCOCCOCCNC(=O)CCC(=O)Nc1ccc(CCN2CN(c3ccccc3)C3(CCN(CCCC(=O)c4ccc(F)cc4)CC3)C2=O)cc1)CC(=O)NCCOCCOCCNC(=O)CCC(=O)Nc1ccc(CCN2CN(c3ccccc3)C3(CCN(CCCC(=O)c4ccc(F)cc4)CC3)C2=O)cc1` [Compound 13, Methyl 19-((4-(2-(8-(4-(4-fluorophenyl)-4-oxobutyl)-4-oxo-1-phenyl-1,3,8-triazaspiro[4.5]decan-3-yl)ethyl)phenyl)amino)-3-(16-((4-(2-(8-(4-(4-fluorophenyl)-4-oxobutyl)-4-oxo-1-phenyl-1,3,8-triazaspiro[4.5]decan-3-yl)ethyl)phenyl)amino)-2,13,16-trioxo-6,9-dioxa-3,12-diazahexadecyl)-5,16,19-trioxo-9,12-dioxa-3,6,15-triazanonadecanoate], for which the “decrease of binding by disturber peptide TAT-TM6” value at D2R [2] (TAT-TM6 of D2R vs no peptide) is recorded as 52 fold. Moreover, the “magnitude of the signaling by sumanirole” value at D2R [1] is given as “significantly decreased”.

With `COC(=O)CN(CC(=O)NCCOCCOCCNC(C)=O)CC(=O)NCCOCCOCCNC(=O)CCC(=O)Nc1ccc(CCN2CN(c3ccccc3)C3(CCN(CCCC(=O)c4ccc(F)cc4)CC3)C2=O)cc1` [Compound 15, Methyl 3-(2,13-dioxo-6,9-dioxa-3,12-diazatetradecyl)-19-((4-(2-(8-(4-(4-fluorophenyl)-4-oxobutyl)-4-oxo-1-phenyl-1,3,8-triazaspiro[4.5]decan-3-yl)ethyl)phenyl)amino)-5,16,19-trioxo-9,12-dioxa-3,6,15-triazanonadecanoate], the “effect of TAT-TM6 peptides on binding” value on D2R [2] (TAT-TM6 peptides of D2R and A2AR, native tissue) is on record as “had no effect; also recorded: Neither TAT-TM6 peptide of D2R nor A2R influenced the binding”.

On to `O=C(CCCN1CCC2(CC1)C(=O)NCN2c1ccccc1)c1ccc(F)cc1` [spiperone, reference compound], for which the “magnitude of the signaling by sumanirole” value at D2R [1] was “significantly decreased”.
